Values of other authors, collected in patent US4981695A, “Composition comprising L-dopa” (priority 1986, dated 1991).

Experiments:
[1] = background
Parkinsons disease = conditions: particularly tremor; background

For N[C@@H](Cc1ccc(O)c(O)c1)C(=O)O [L-dopa, L-3,4-dihydroxyphenylalanine], the “decomposition by carboxylic elimination” value [1] is given as “rapidly decomposed by carboxylic elimination”, the “resorption (absorption window)” value ([1]; gastro-intestinal tract) is given as “resorbed over a restricted part of the gastro-intestinal tract” and the “inhibition of symptoms of the Parkinsons disease” value (Parkinsons disease) is given as “active at the inhibition of symptoms of the Parkinsons disease”.

For NC(CO)C(=O)NNCc1ccc(O)c(O)c1O (centres unmarked) [benserazide], the “L-dopa dose on adding a decarboxylase inhibitor” value [1] is listed as “considerably reduced”.

For C[C@@](Cc1ccc(O)c(O)c1)(NN)C(=O)O [carbidopa], the “L-dopa dose on adding a decarboxylase inhibitor” value [1] is listed as “considerably reduced”.
